{"source": "patent US20240115554A1", "about": "“METHODS FOR TREATING OBSTRUCTIVE HYPERTROPHIC CARDIOMYOPATHY” (Cytokinetics, Incorporated, priority 2022, published 2024)", "key": {"[1]": {"test_system": "patients with symptomatic oHCM", "assay": "Open-label extension: global longitudinal strain (GLS) by echocardiography", "format": "in vivo, human", "conditions": "baseline −13.9%±3.2", "protocol": "GLS analysis was performed using a vendor-neutral analysis package (TOMTEC® Imaging Systems)."}, "[2]": {"test_system": "patients with symptomatic obstructive HCM (oHCM)", "assay": "Phase 2 trial: echocardiography (LVOT-G, LVEF, cardiac remodeling)", "format": "in vivo, human", "conditions": "for patients achieving resting gradient <30 mmHg and post-Valsalva gradient <50 mmHg at Week 10 (complete hemodynamic response): n=14", "text": "Cohort 3 included patients receiving disopyramide.\nSince patient characteristics vary substantially in this disease, individualized dose titration to a pharmacodynamics (PD) response (reduction of the LVOT-G to <30 mmHg with preservation of LVEF >50%) was employed to maximize efficacy and safety.\nPatients up-titrated to Dose 2 if either of the following conditions were met on echocardiography: (1) resting LVOT-G ≥30 mmHg and the biplane LVEF ≥50%; or (2) resting LVOT-G <30 mmHg, post-Valsalva LVOT-G ≥50 mmHg, and the biplane LVEF ≥50%. Otherwise, the patient remains on Dose 1. If LVEF is <50% at Week 2, the patient was down-titrated to placebo.\nPatients were escalated to the next higher dose if either of the following conditions were met on echocardiography: (1) resting LVOT-G ≥30 mmHg and the biplane LVEF ≥50%; or (2) resting LVOT-G <30 mmHg, post-Valsalva LVOT-G ≥50 mmHg, and the biplane LVEF ≥50%. Otherwise, the patient remained on the same dose. If LVEF was <50% at Week 4, the patient was returned to a prior dose level or to placebo if the patient was on Dose 1.\nEchocardiograms obtained every 2 weeks and 2 weeks after the last dose were analyzed for several key structural and physiologic metrics and N-terminal prohormone of brain natriuretic peptide (NT-proBNP).\nOverall, treatment duration for each patient in the study was 10 weeks with an echocardiogram conducted 2 weeks after the last dose.\nSecondary results from the clinical study included data from Cohort 3 (n=13). […] Overall, treatment duration for each patient in the study was 10 weeks with an echocardiogram conducted 2 weeks after the last dose. Efficacy endpoints included resting and provoked LVOT gradients, NYHA class, and NT-proBNP."}, "[3]": {"test_system": "patients with symptomatic oHCM", "assay": "Open-label extension: cardiac biomarkers (NT-proBNP, hs-cTnI)", "format": "in vivo, human", "conditions": "Week 48", "protocol": "At Weeks 4, 6, 12, and every 12 weeks thereafter, each patient has an echocardiogram or truncated echocardiogram following administration of their dose (a truncated echocardiogram at weeks 4 and 6; and an echocardiogram at week 12 and every 12 weeks thereafter) to determine whether additional dose titration is needed (see Table 21 and Table 22). Patient reported outcomes, laboratory assessments, measurements of NT-proBNP, hs-cTnI, and other biomarkers are performed at week 12 and every 12 weeks thereafter. Ambulatory cardiac monitoring is performed on weeks 48, 96, 144, 192 and 240 Cardiac magnetic resonance is monitored at weeks 48, 144 and 240. If a patient develops an LVEF <40% after the Week 2 visit, a repeat echocardiogram may be performed to confirm the initial finding (preferably within 24 hours). If the echocardiography findings are confirmed, the patient will undergo a ≥2-day drug holiday."}, "[4]": {"test_system": "patients with symptomatic obstructive HCM (oHCM)", "assay": "Phase 2 trial: safety and tolerability", "description": "Seventeen investigative sites in North America and Europe screened for patients to enroll in Cohorts 1 and 2.\nThe first two cohorts (Cohort 1 and Cohort 2) excluded patients receiving disopyramide. Cohort 3 included patients receiving disopyramide. […] Overall, the treatment duration was 10 weeks with a 4-week follow-up period after the last dose."}, "[5]": {"test_system": "patients with symptomatic oHCM", "assay": "Open-label extension: SRT eligibility per guideline criteria", "format": "in vivo, human", "conditions": "Week 48 visit; 19 patients (42%) eligible at baseline", "text": "There was a substantial reduction in peak resting and Valsalva LVOT-G from baseline to week 48 [ΔResting mean: −32 mmHg (±28); Δ Valsalva mean: −47 mmHg (±28)] (see FIG. 53 and FIG. 54, respectively). […] There was substantial improvement in NYHA class: by week 48, 88% of patients experienced ≥1 NYHA FC improvement while none had NYHA FC worsening (see FIG. 56). At baseline, 19 patients (42%) were eligible for SRT per guideline criteria of symptoms and hemodynamics, despite receiving beta-blocker, (78%) calcium channel blocker (18%), and disopyramide (22%). […] NT pro-BNP decreased from baseline to Week 48 (from a geometric mean [CV %] of 651.0 [160.4] to 111.1 [93.4] pg/mL), representing a […] reduction from baseline (p<0.0001)."}, "[6]": {"test_system": "patients with symptomatic oHCM", "assay": "Open-label extension: Kansas City Cardiomyopathy Questionnaire (KCCQ)", "format": "in vivo, human", "protocol": "Change in KCCQ scores from baseline, including OSS=overall summary score, CSS=clinical summary score, TSS=total symptom score, PLS=physical limitation score, SLS=social limitation score, QoL=quality of life, were determined. Patients were categorized with worsened (≤−5 points), unchanged (−5 to <5 points), small improvement (5 to <10 points), moderate to large improvement (10 to <20 points), and large to very large improvement (≥20 points) relative to baseline."}, "[7]": {"conditions": "Cohort 3 (with disopyramide), n=13"}, "[8]": {"conditions": "baseline to week 10, pooled aficamten"}, "[9]": {"conditions": "Cohort 1, 21 randomized 2:1 aficamten (5, 10, 15 mg once daily) or placebo, 10 weeks"}, "[10]": {"conditions": "Cohort 2, 20 randomized 2:1 aficamten (10, 20, 30 mg once daily) or placebo, 10 weeks"}, "[11]": {"conditions": "Cohort 3, 13 patients, aficamten (5, 10, 15 mg once daily) on top of disopyramide, 10 weeks"}, "[12]": {"conditions": "Total, Cohorts 1-3, 54 patients"}}, "note": "Where “and” joins values, the source holds several entries; their conditions need not be identical. Equal entries are not always repeated. Entries after “also recorded” stand apart in the source; their conditions may differ.", "data": [{"smiles": "CCc1nc(-c2ccc3c(c2)CC[C@H]3NC(=O)c2cnn(C)c2)no1", "note": "[aficamten, (R)—N-(5-(5-ethyl-1,2,4-oxadiazol-3-yl)-2,3-dihydro-1H-inden-1-yl)-1-methyl-1H-pyrazole-4-carboxamide]", "values": [{"measurement": "GLS", "setting": "[1]; week 12 (n=27)", "result": "−14.3±3.0", "unit": "%"}, {"measurement": "GLS", "setting": "[1]; week 36-48 (n=27)", "result": "−14.9", "unit": "%"}, {"measurement": "patients achieving resting gradient <30 mmHg and post-Valsalva gradient <50 mmHg at Week 10 (complete hemodynamic response)", "setting": "[2]; Cohort 1 (5, 10, 15 mg)", "result": "78.6% and 79%"}, {"measurement": "average resting LVOT-G at 10 weeks", "setting": "[2]; Cohort 1 (n=14), 53.8 mmHg at baseline", "result": 13.4, "unit": "mmHg"}, {"measurement": "average Valsalva LVOT-G at 10 weeks", "setting": "[2]; Cohort 1 (n=14), 77.4 mmHg at baseline", "result": 38.1, "unit": "mmHg"}, {"measurement": "average ejection fraction at 10 weeks", "setting": "[2]; Cohort 1 (n=14), baseline 72.8% (73±6%)", "result": "67.3% and 67±9%"}, {"measurement": "patients achieving resting gradient <30 mmHg and post-Valsalva gradient <50 mmHg at Week 10 (complete hemodynamic response)", "setting": "[2]; Cohort 2 (10, 20, 30 mg)", "result": "92.9% and 93%"}, {"measurement": "average resting LVOT-G at 10 weeks", "setting": "[2]; Cohort 2 (n=14), 58.2 mmHg at baseline", "result": 15.1, "unit": "mmHg"}, {"measurement": "average Valsalva LVOT-G at 10 weeks", "setting": "[2]; Cohort 2 (n=14), 82.3 mmHg at baseline", "result": 29.8, "unit": "mmHg"}, {"measurement": "average ejection fraction at 10 weeks", "setting": "[2]; Cohort 2 (n=14), baseline 75.4% (75±6%)", "result": "64.1% and 64±8%"}, {"measurement": "patients with complete or partial response in LVOT gradients at end of treatment", "setting": "[2]; Cohort 3 (Ten of 13)", "result": 77, "unit": "%"}, {"measurement": "patients with temporary complete or partial response during the treatment period", "setting": "[2]; Cohort 3 (Three patients)", "result": 23, "unit": "%"}, {"measurement": "mean (SD) reduction of resting LVOT-G at Week 10", "setting": "[2]; [7]", "result": 27, "unit": "mmHg"}, {"measurement": "mean reduction of Valsalva LVOT-G at Week 10", "setting": "[2]; [7]", "result": 28, "unit": "mmHg"}, {"measurement": "mean LVEF at end of 10-week treatment", "setting": "[2]; Cohort 3 (with disopyramide), baseline 74±7.5%", "result": "69±7.2", "unit": "%"}, {"measurement": "dose dependence of reductions in LVOT-G", "setting": "[2]; Cohorts 1 and 2", "result": "dose dependent"}, {"measurement": "onset of reductions in LVOT-G", "setting": "[2]; Cohorts 1 and 2", "result": "within two weeks of initiating treatment"}, {"measurement": "mean reduction in EF per mg of aficamten", "setting": "[2]; Cohorts 1 and 2, dose vs EF over time", "result": "−0.6", "unit": "% per mg"}, {"measurement": "change in e′", "setting": "[2]; [8]", "result": 0.5, "unit": "cm/s"}, {"measurement": "change in lateral E/e′", "setting": "[2]; [8]", "result": "−2.0 (±1.1)"}, {"measurement": "LVMI mean difference, aficamten vs placebo", "setting": "[2]; week 10", "result": 8.1, "unit": "g/m^2"}, {"measurement": "NT pro-BNP reduction from baseline", "setting": "[3]", "result": 70, "unit": "%"}, {"measurement": "patients with LVEF <50%", "setting": "[4]; Cohort 1", "result": "No patients"}, {"measurement": "Patients with TEAEs leading to drug interruption or termination", "setting": "[4]; [9]", "result": 0, "unit": "N"}, {"measurement": "Patients with fatal TEAEs", "setting": "[4]; [9]", "result": 0, "unit": "N"}, {"measurement": "TEAE of LVEF <50% (Core Lab)", "setting": "[4]; [9]", "result": 0, "unit": "N"}, {"measurement": "patients with transient LVEF reduction to <50% requiring down titration", "setting": "[4]; Cohort 2, 20 mg", "result": "one patient"}, {"measurement": "Patients with TEAEs leading to drug interruption or termination", "setting": "[4]; [10]", "result": 0, "unit": "N"}, {"measurement": "Patients with TESAEs", "setting": "[4]; [10]", "result": 0, "unit": "N"}, {"measurement": "Patients with fatal TEAEs", "setting": "[4]; [10]", "result": 0, "unit": "N"}, {"measurement": "changes in QTc interval or vital signs", "setting": "[4]; Cohort 3", "result": "no significant changes in QTc interval, or vital signs"}, {"measurement": "moderate adverse events recorded", "setting": "[4]; Cohort 3", "result": "six"}, {"measurement": "patients with LVEF <50%", "setting": "[4]; Cohort 3", "result": "No patients experienced LVEF <50%"}, {"measurement": "serious adverse events, dose interruptions, discontinuations", "setting": "[4]; Cohort 3", "result": "no serious adverse events attributed to treatment; also recorded: no dose interruptions, treatment discontinuations, or serious adverse events"}, {"measurement": "Patients with TEAEs leading to drug interruption or termination", "setting": "[4]; [11]", "result": 0, "unit": "N"}, {"measurement": "Patients with TESAEs", "setting": "[4]; [11]", "result": 0, "unit": "N"}, {"measurement": "Patients with fatal TEAEs", "setting": "[4]; [11]", "result": 0, "unit": "N"}, {"measurement": "TEAE of LVEF <50% (Core Lab)", "setting": "[4]; [11]", "result": 0, "unit": "N"}, {"measurement": "adverse event of asymptomatic atrial fibrillation", "setting": "[4]; Cohort 3, patient with known prior history", "result": "One"}, {"measurement": "interruptions or discontinuations of treatment", "setting": "[4]; Cohorts 1 and 2", "result": "no treatment interruptions; also recorded: No interruptions or discontinuations"}, {"measurement": "new cases of atrial fibrillation", "setting": "[4]; Cohorts 1 and 2", "result": "No new cases of atrial fibrillation"}, {"measurement": "severity of adverse events", "setting": "[4]; Cohorts 1 and 2", "result": "mild or moderate"}, {"measurement": "treatment related serious adverse events", "setting": "[4]; Cohorts 1 and 2", "result": "No serious adverse events were attributed to aficamten; also recorded: no treatment related serious adverse events"}, {"measurement": "reversibility of LVEF effect after end of treatment", "setting": "[4]; Phase 2 cohorts", "result": "returned towards baseline within two weeks after the end of treatment; also recorded: returned to baseline after the 2-week washout"}, {"measurement": "Patients with TEAEs leading to drug interruption or termination", "setting": "[4]; [12]", "result": 0, "unit": "N"}, {"measurement": "Patients with fatal TEAEs", "setting": "[4]; [12]", "result": 0, "unit": "N"}, {"measurement": "patients eligible for SRT per guideline criteria", "setting": "[5]", "result": "none of these patients met these criteria; also recorded: eliminated SRT eligibility in all patients"}, {"measurement": "participants with clinically-important improvement (5 points on the KCCQ Overall Summary Score)", "setting": "[6]; Week 12", "result": 72.7, "unit": "%"}, {"measurement": "participants with very large clinical improvements in KCCQ", "setting": "[6]; Week 12", "result": 36.4, "unit": "%"}, {"measurement": "participants with clinically-important improvement (5 points on the KCCQ Overall Summary Score)", "setting": "[6]; Week 24", "result": 72.0, "unit": "%"}, {"measurement": "participants with very large clinical improvements in KCCQ", "setting": "[6]; Week 24", "result": 40.0, "unit": "%"}, {"measurement": "improvement in KCCQ domain scores", "setting": "[6]; up to 6 months", "result": "marked and sustained improvement in all KCCQ domain scores"}]}]}
